Measurements published in publication PMC10823475, “Design, Synthesis, and Evaluation of Inhibitors of Hedgehog Acyltransferase” (Journal of Medicinal Chemistry, 2024).
Where “and” joins values, the source holds several entries; their conditions need not be identical. Identical values can stand only once.

Key:
in vitro = settings: PAMPA
Method: (§3) Passive diffusion was estimated using the PAMPA method. […] The donor plate was a MultiScreen-IP Plate with 0.45 μm hydrophobe Immobilon-P Membrane (Millipore, #MAIPNTR10) and the acceptor plate was a MultiScreen 96-well Transport Receiver Plate (Millipore, #MATRNPS50). […] Acceptor pH was 7.4. All samples were analyzed against an external, matrix-matched, standard curve by LC-MS/MS with a Waters (Elstree, Herts. UK) Acquity H-class LC system coupled to a Waters TQ-S mass spectrometer. Permeability values (cm/s) were calculated using the following equation: [drawing 2] and VD = volume of donor; VA = volume of acceptor; area = surface area of the membrane · porosity.

[1] = PAMPA parallel artificial membrane permeability assay; settings: for recovery at 16 h, 10 µM / Papp at 16 h, 10 μM: PAMPA
Method: as §3

purified HHAT = molecular target: T1, purified HHAT (Homo sapiens, UniProt Q5VTY9); assay: Acyl-cLIP assay, inhibition of purified HHAT; assay type: biochemical; settings: for IC50: purified HHAT, read-out: Acyl-cLIP Assay IC50 (CI95)
T1 construct: made in house
In short: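 Percent inhibition was first taken at 50 μM and 25 μM, then IC50 derived from variable-slope dose-response curves of initial rate constants, normalized against DMSO and HHAT-free samples. Reaction: purified DDM-solubilized HHAT transfers palmitoyl from palmitoyl-CoA onto a FAM-SHH peptide (MES, pH 6.5), monitored 30 min by fluorescence anisotropy.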

[2] = Microsomal incubations, human liver microsomes; assay type: in vitro ADME; settings: 1 μM
Method: (§1) Metabolic stability assays were performed using a Microlab Star liquid handling workstation (Hamilton Robotics, Bonaduz, Switzerland). Test compounds (1 μM, 1% DMSO) were preincubated at 37 °C for 10 min in 0.5 mg/mL female CD1 mouse and mixed gender human liver microsomes in 10 mM phosphate buffered saline (PBS; Sigma-Aldrich Company Ltd. (Dorset, UK)). Microsomes were purchased either from Sekisui XenoTech, LLC (Kansas City, USA) or BioreclamationIVT (Frankfurt Am Main, Germany). Reactions were initiated by the addition of NADPH (final concentration 1 mM). At 0, 15, and 30 min, aliquots were removed from each incubation and quenched in 3 volumes of ice-cold methanol containing olomoucine (Sigma-Aldrich, Dorset, UK) as an internal standard. […] The percentage metabolized was calculated by comparing peak area ratio (peak area test compound/peak area of internal standard) at t = 15 and 30 min versus t = 0 min.

[3] = Microsomal incubations, mouse liver microsomes; assay type: in vitro ADME; settings: 1 μM
Method: as §1

HEK293a SHH+ cells = assay: MTS assay, cytotoxicity (72 h); assay type: cell-based
In short: (§2)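 Cells plated at 5000/well, cultured 24 h, then exposed to analogues (0.14–100 μM final) in DMEM/10% FBS for 72 h. MTS/PMS added for 3 h at 37 °C and absorbance read at 490 nm; data normalised to DMSO vehicle and puromycin (2 μg/mL) wells, curves fitted with a variable-slope sigmoidal model.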

[4] = MTS assay, cytotoxicity (72 h); assay type: cell-based; settings: human, HEK293a SHH+ cells, 72 h; for CC50 at 72 h: read-out: MTS Assay (HEK293a SHH+) CC50 (CI95)
In short: as §2

[5] = pH 5, PAMPA Papp pH 5, donor pH 5, 10 µM
[6] = pH 5, PAMPA Permeability Class pH 5, donor pH 5, 10 µM
[7] = pH 6.5, PAMPA Papp pH 6.5, donor pH 6.5, 10 µM
[8] = pH 6.5, PAMPA Permeability Class pH 6.5, donor pH 6.5, 10 µM
[9] = pH 7.4, PAMPA Papp pH 7.4, donor pH 7.4, 10 µM

T1 sequence (Q5VTY9 whole entry): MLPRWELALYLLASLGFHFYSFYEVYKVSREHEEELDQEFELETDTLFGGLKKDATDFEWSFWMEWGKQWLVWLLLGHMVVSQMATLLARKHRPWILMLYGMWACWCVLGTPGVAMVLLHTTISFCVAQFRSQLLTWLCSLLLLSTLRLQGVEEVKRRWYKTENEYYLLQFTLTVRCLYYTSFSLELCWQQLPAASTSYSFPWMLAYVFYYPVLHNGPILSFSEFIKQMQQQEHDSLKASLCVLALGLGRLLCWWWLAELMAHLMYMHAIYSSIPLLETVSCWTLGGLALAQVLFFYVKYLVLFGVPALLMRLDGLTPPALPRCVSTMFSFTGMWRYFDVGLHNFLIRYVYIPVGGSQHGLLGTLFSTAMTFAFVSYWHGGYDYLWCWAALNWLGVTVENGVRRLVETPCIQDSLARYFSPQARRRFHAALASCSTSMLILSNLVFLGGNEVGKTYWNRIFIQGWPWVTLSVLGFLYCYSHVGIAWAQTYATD

Row | SMILES | recovery at 16 h, 10 µM ([1]; pH 5) | Papp at 16 h, 10 μM [1, 5] | Papp at 16 h, 10 μM [1, 6] | recovery at 16 h, 10 µM ([1]; pH 6.5) | Papp at 16 h, 10 μM [1, 7] | Papp at 16 h, 10 μM [1, 8] | recovery at 16 h, 10 µM ([1]; pH 7.4) | Papp at 16 h, 10 μM [1, 9] | PAMPA passive permeability ([1]; pH 7.4) | inhibition at 25 µM (purified HHAT) | inhibition at 50 µM (purified HHAT) | IC50 (purified HHAT) | HLM % metabolized after 15 min [2] | HLM % metabolized after 30 min [2] | MLM % metabolized after 15 min [3] | MLM % metabolized after 30 min [3] | CC50 at 72 h [4] | viability at 72 h, 12.5 µM [4] | viability at 72 h, 25 µM [4] | also measured
1 | Cc1cc(=O)n(-c2ccccc2)n1C [Antipyrine] |  |  |  |  |  |  |  |  |  |  |  |  |  |  |  |  |  |  |  | recovery at 16 h, 10 µM (in vitro; pH 5): 109%; Papp at 16 h, 10 μM (in vitro; pH 5, PAMPA Papp pH 5): 6.5 ×10⁻⁶ cm/s; Papp at 16 h, 10 μM (in vitro; pH 5, PAMPA Permeability Class pH 5): 5 to 20 ×10⁻⁶ cm/s; recovery at 16 h, 10 µM (in vitro; pH 6.5): 119%; Papp at 16 h, 10 μM (in vitro; pH 6.5, PAMPA Papp pH 6.5): 6.6 ×10⁻⁶ cm/s; Papp at 16 h, 10 μM (in vitro; pH 6.5, PAMPA Permeability Class pH 6.5): 5 to 20 ×10⁻⁶ cm/s; recovery at 16 h, 10 µM (in vitro; pH 7.4): 145%; Papp at 16 h, 10 μM (in vitro; pH 7.4, PAMPA Papp pH 7.4): 7.3 ×10⁻⁶ cm/s; Papp at 16 h, 10 μM (in vitro; pH 7.4, PAMPA Permeability Class pH 7.4): 5 to 20 ×10⁻⁶ cm/s
2 | CC(=O)N1CCc2ccccc2C1c1ccccc1 (stereo not shown) [Compound 37, 1-(1-Phenyl-3,4-dihydroisoquinolin-2(1H)-yl)ethan-1-one] | 95% | > 200 ×10⁻⁶ cm/s | > 20 ×10⁻⁶ cm/s | 92% | > 200 ×10⁻⁶ cm/s | > 20 ×10⁻⁶ cm/s | 89% | > 200 ×10⁻⁶ cm/s | high passive permeability | 55 ± 7% | 53 ± 3% | > 25 µM | 45.2% | 55.9% | 94.6% and > 90% | 99.8% | 47.9 µM | 101 ± 5% | 94 ± 6% | Papp at 16 h, 10 μM ([1]; pH 7.4, PAMPA Permeability Class pH 7.4, donor pH 7.4, 10 µM): > 20 ×10⁻⁶ cm/s; PAMPA permeability ([1]; over the full pH range tested): high permeability; CC50 (HEK293a SHH+ cells; 72 h, read-out: MTS Assay (HEK293a SHH+) CC50 (CI95)): > 50 µM
3 | CCC(C)CNCC(=O)N1CCc2ccccc2C1c1ccccc1 (stereo not shown) [Compound 38, 2-((2-Methylbutyl)amino)-1-(1-phenyl-3,4-dihydroisoquinolin-2(1H)-yl)ethan-1-one] | 91% | 1.3 ×10⁻⁶ cm/s | < 5 ×10⁻⁶ cm/s | 45% | 24.4 ×10⁻⁶ cm/s | > 20 ×10⁻⁶ cm/s | 17% | 53.9 ×10⁻⁶ cm/s | high passive permeability | 91 ± 5% | 95 ± 5% | 7.01 µM | 30.3% | 49.2% | 100.0% and > 90% | 100.0% | 8.1 µM | 69 ± 4% | 33 ± 6% | LLEAcyl-cLIP (purified HHAT; from Acyl-cLIP IC50 and clogDpH7.4): 2.82; toxicity to HEK293a SHH+ cells (HEK293a SHH+ cells): toxic
